The values that follow come from patent publication US20260337229A1 (Seattle Children's Hospital (d/b/a Seattle Children's …, priority 2022, published 2026).

Structures are written as SMILES. Residues, ends and D or L forms follow the SMILES beside them.

The nature of test [1]: Dose escalation study in DIO rats. The conditions noted are these: 300 nmol/kg/d. It counts as in vivo, male DIO Sprague Dawley rats. The text has this: Male DIO Sprague Dawley rats (n=4) were fed 60% HF diet (formula: D12492; Research Diets, Inc., New Brunswick, NJ, USA; 5.21 kcal/g) for 16 weeks prior to the start of the study. Rats were changed to being singly housed and allowed to acclimate for at least one week prior to the start of this study. Animals averaged 844.15 Z 99.95 g at baseline. Baseline measures of body weight, food intake, and water intake were taken for 6 days before drug administration began. Doses for the dose escalation study included 1, 2, 5, 10, 20, 50, and 100 nmol/kg. Body weight, food and water intake were assessed just prior to the start of the dark cycle. […] In certain embodiments, the greatest anorectic effect achieved with ASK1476 occurred at the 300 nmol/kg/d dose yielding a ~34% reduction in caloric intake while ASK2131 dosed at 2 nmol/kg/d yielded a ~55% reduction in caloric intake.

For test [2] the following is noted: in words; cited from earlier work.

For the compound `CCCCCCCCCCCCCCCC(=O)NCCOCCOCCOCCOCCOCCOCCOCCOCCC(=O)NCCCC[C@H](NC(=O)CNC(=O)[C@@H]1CSSC[C@H](N)C(=O)N[C@@H](Cc2ccc(O)cc2)C(=O)N[C@@H]([C@@H](C)CC)C(=O)N[C@@H](CCC(N)=O)C(=O)N[C@@H](CC(N)=O)C(=O)N1)C(=O)NCC(N)=O` [ASK1476] (HELM PEPTIDE1{C.Y.I.Q.N.C.G.K.G.[am]}|PEPTIDE2{[CCCCCCCCCCCCCCCC(=O)[*:2]].[O=C(CCOCCOCCOCCOCCOCCOCCOCCOCCN[*:1])[*:2]]}$PEPTIDE1,PEPTIDE2,8:R3-2:R2|PEPTIDE1,PEPTIDE1,1:R3-6:R3$$$V2.0), the “reduction in caloric intake, greatest anorectic effect” value in test [1] is given as ~ 34%. In addition, in test [2], the “response in a prior study” value was “U-shaped response”.
